Laboratory results as given in patent US8802082B2, “Rhodamine derivatives for photodynamic diagnosis and treatment” (Université de Montreal, priority 1999, dated 2014).

How the values were obtained:
Assay type in all cases: cell-based, human
[1] = test system: PHA-activated PB mononuclear cells; experiment: Phototoxicity against PHA-activated PB mononuclear cells (mixed lymphocyte reaction, 3H-thymidine; cell counts)
Method: Suspensions of cells were then incubated with 10 μM TH9402 for 40 minutes at 37° C. Cells were treated at 1×10^6 cells/mL in X-vivo-15 medium without phenol red (BioWhittaker, Walkersville, Md., USA) supplemented with 2,5% FBS. At the end of the incubation period, cells were spun down and the cell pellet resuspended in the X-vivo culture medium in the absence of dye, supplemented with 10% FBS. Cells were then placed in T-flasks (Corning, Cambridge, Mass., USA) for 90 minutes at 37° C. […]
Normal PBMC were activated by incubation at 37° C. for 48 to 72 hours in X-vivo-15 medium (Biowhittaker, Walkersville. Md. U.S.A.) supplemented with 20% AB serum (Sigma), 1% pen-strep (Gibco), 2% glutamin (Gibco) and 20 μg/ml of phytohemagglutinin-A (PHA-P)(Sigma). […] Following incubation, cells were washed and treated with the TH9402 photodynamic treatment as described above, and proliferative activity measured as described below.
The latter cells were serially diluted in order to obtain effector (treated cells) to target ratios ranging from 2:1 to 1:4 (4×10^4 treated effector cells/well) and incubated at 37° C. for 5 days. […] Radioactivity in the cell harvest was counted using a liquid scintillation counter (Beckman, Chicago, Ill., USA).
The phototoxicity of TH9402 against PHA-activated PB mononuclear cells was assessed after photodynamic treatment using 5 and 7.5 joules/cm^2 of light energy (FIG. 2). […]

[2] = test system: cells from subject A, activated against B; experiment: Allogeneic T cell activation (one-way mixed lymphocyte culture), PDT, then proliferation assay; details: TH9402 PDT, 5-day proliferation assay
Method: Suspensions of cells were then incubated with 10 μM TH9402 for 40 minutes at 37° C. Cells were treated at 1×10^6 cells/mL in X-vivo-15 medium without phenol red (BioWhittaker, Walkersville, Md., USA) supplemented with 2,5% FBS. At the end of the incubation period, cells were spun down and the cell pellet resuspended in the X-vivo culture medium in the absence of dye, supplemented with 10% FBS. Cells were then placed in T-flasks (Corning, Cambridge, Mass., USA) for 90 minutes at 37° C. Following this second incubation in medium without dye, cells were exposed at 3 mm thickness to desired light energy, usually 5 joules/cm^2 using a previously described light delivery device (U.S. Pat. No. 5,798,523). Light energy was delivered using a fluorescent scanning lamp device with maximum wavelength around 512 nm.
The latter cells were serially diluted in order to obtain effector (treated cells) to target ratios ranging from 2:1 to 1:4 (4×10^4 treated effector cells/well) and incubated at 37° C. for 5 days. Eighteen hours prior to harvesting, 1 μCi of ^3H-thymidine was added. Cells were harvested using a PHD cell harvester (Cambridge Technology, Boston, Mass., USA). Radioactivity in the cell harvest was counted using a liquid scintillation counter (Beckman, Chicago, Ill., USA).
Another approach was used in this study to activate cells against specific target antigens. […]

activated lymphocytes = experiment: Cellular content/efflux of TH9402 by flow cytometry, activated lymphocytes; details: 10 μM TH9402, wash with 1 μg/ml cyclosporin-A, 110 minutes
Method: TH9402 cellular content in resting and activated lymphocytes was evaluated by flow-cytometry, since the intensity of TH9402 (green) fluorescence correlates with the cellular content in TH9402. Briefly, 10^6 cells/ml, previously activated or not with PHA, were incubated in X-vivo-5 medium supplemented with 2.5% human AB serum and 10 μM TH9402 for 40 minutes. These cells were washed two times with X-vivo medium supplemented with 10% AB serum and cells analysed by flow cytometry 30, 50, 70, 90 and 110 min after the end of the TH9402 incorporation period. […] Since cellular concentration of TH9402 correlates with the extent of cell elimination, the high concentration of TH9402 maintained in activated lymphocytes explains their sensitivity to photodynamic therapy. In contrast, the rapid efflux of TH9402 from resting lymphocytes should explain preservation of their proliferative activity.
In order to identify the mechanism responsible for the differential retention of TH9402 between activated and resting lymphocytes, cyclosporin-A was used to block the multidrug transporter (P-gp 170). These cells were incubated with 10 μM TH9402 for 8 minutes, and washed with medium containing 1 μg/ml cyclosporin-A or medium alone. TH9402 retention was subsequently evaluated by flow-cytometry (green fluorescence) (FIG. 5). […]

[3] = test system: non-lymphoid hematopoietic progenitors (CFU-GM, BFU-E, CFU-GEMM); experiment: Clonogenic assay of hematopoietic progenitors in methylcellulose after PDT; details: same conditions of PDT as for B cells
Method: To evaluate the potential of PDT with TH9402 to eliminate other immune cell populations, normal human B cells were used as targets. Mononuclear cells from normal donors were obtained by leukopheresis, and resuspended at 20 million cells per ml during the whole PDT process. Cells were centrifuged and resuspended in pre-warmed (37° C.) X-Vivo-15 medium supplemented with 2.5% FCS and 10 U/ml heparin, with 5 μM TH9402. After 40 minutes of incubation at 37° C., cells were washed and resuspended in a X-Vivo-15 medium and 10% FCS with 10 U/ml heparin (medium free of TH9402) for an efflux period of 50 minutes before exposure to light energy (10 to 30 Joules/cm^2). Cells underwent light exposure at 20 million cells per ml and at a thickness of 2 cm.
To verify that the treatment preserved normal hematopoetic progenitors, we have used a clonogenic assay to measure the amount of hematopoetic clonogenic precursors present in the same samples. […]
Normal human mononuclear cells were obtained and subjected to various PDP conditions to determine the efficacy of eradication of B cells, specificity and safety of the procedure. […] In contrast, when these cells were evaluated for the elimination of non-lymphoid hematopoietic progenitors, usually less than 50% (half of a logarithm) of these progenitors were eliminated by the same conditions of PDT (FIG. 7B). […]

SMILES: Br.COC(=O)c1ccccc1-c1c2ccc(=N)c(Br)c-2oc2c(Br)c(N)ccc12 [TH9402, 4,5-dibromorhodamine 123 (2-(4,5-dibromo-6-amino-3-imino-3H-xanthen-9-yl)-benzoic acid methyl ester) hydrobromide]
- reactivity towards MHC incompatible cells (proliferation in mixed lymphocyte culture) ([1]; PHA-activated cells treated with TH9402, 5 and 7.5 J/cm^2): abrogated
- decrease of cell counts of the treated cells in comparison to the medium control ([1]; three days after the photodynamic treatment): > 90%
- proliferation when exposed to C cells (mismatched unrelated) [2]: retained the capacity to proliferate
- proliferation when reexposed to cells from B [2]: did not proliferate
- fluorescence intensity in activated cells treated or not treated with cyclosporin A (activated lymphocytes): identical
- non-lymphoid hematopoietic progenitors eliminated [3]: less than 50%
